Reference: patent US20110092456A1, “Methods of increasing cAMP levels and uses thereof” (priority 2009, published 2011)
Blank lines part the entries; values can stand above or below the molecule they belong to.

Experiments:
6-keto-PGF1α = test: Myocardial 6-keto-PGF1α levels, mouse; format: in vivo
Procedure: (§1) Protocol 1: Mice received 3-day pretreatment with: 1) SIT (300 mg/kg per day); 2) PIO (5 mg/kg per day); 3) SIT+PIO; or water alone (control). Drugs were suspended in water and administered by oral gavage once daily. On the 4th day, mice received intravenous H-89 (20 mg/kg) or vehicle (5% DMSO) (40). One hour after injection, mice underwent coronary artery ligation for 30 minutes followed by 4-hour reperfusion, or mice were euthanized under anesthesia and hearts were explanted without being subjected to ischemia. For immunoblotting and enzyme activity, hearts were rinsed in cold PBS (pH 7.4), containing 0.16 mg/ml heparin to remove red blood cells and clots, frozen in liquid nitrogen and stored at −80° C. for further analyses.
(§2) Myocardial samples of the anterior wall of the left ventricle were homogenized in cold PBS (pH 7.4), and centrifuged. The supernatants were collected and stored on ice. […] Each myocardial sample was tested in triplicate (the first without an inhibitor; the second with DuP-697, a specific COX2 inhibitor; and the third with Sc560, a specific COX1 inhibitor. COX1 activity was calculated as the difference between total COX activity in the sample without an inhibitor and the sample with Sc560, and COX2 activity as the difference between total COX activity in the sample without an inhibitor and the sample with DuP-697.

eNOS = test: Immunoblotting of myocardial eNOS, mouse; format: in vivo
Procedure: as §1
(§3) Myocardial samples from the risk zone of the anterior wall of the left ventricular wall exposed to ischemia-reperfusion (IR), or from the anterior wall of control hearts not exposed to ischemia were homogenized in lysis buffer (in mMol): 25 Tris.HCl (pH 7.4), 0.5 EDTA, 0.5 EGTA, 1 phenylmethylsulfonyl 193 fluoride, 1 dithiothreitol, 25 NaF, 1 Na3VO4, 1% Triton X-100, 2% SDS and 1% 194 protease inhibitor cocktail. The lysate was centrifuged at 10,000 g for 15 min at 4° C. The resulting supernatants were collected. Protein (50 μg) was fractionated by SDS-PAGE (4%-20% polyacrylamide gels) and transferred to PVDF membranes (Millipore, Bedford, Mass.). The membranes were incubated overnight at […] with primary antibodies. Bound antibodies were detected using the chemiluminescent substrate (NEN Life Science Products, Boston, Mass.). The protein signals were quantified 200 with an image-scanning densitometer, and the strength of each 201 protein signal was normalized to the corresponding β-actin signal. Data are expressed as percent of the expression in the 202 control group.

cAMP = test: Myocardial cAMP levels, mouse; format: in vivo; details: for myocardial cAMP levels: mice, 3-day pretreatment, hearts not subjected to ischemia, words
Procedure: as §1
Myocardial samples from the anterior wall of the left ventricle of hearts that were not subjected to ischemia were homogenize in 1 ml cold extraction buffer [20 mM Tris-HCl (pH7.4), 0.5 mM EDTA, 0.5 mM EGTA, 10 mM β-mercaptoethanol, 1 mM phenylmethylsulfonyl fluoride, 0.1 mM dithiothreitol (DTT), 1 μg/ml leupeptin, 1 μg/ml aprotinin, 0.1% TritonX-100], centrifuged at 14,000×g for 15 min at 4° C., and the supernatants were collected. cAMP levels and PKA activity were measured using assay kits according to the manufacturer's instructions.

[1] = test system: coronary artery ligation for 30 minutes followed by 4-hour reperfusion; test: Mouse coronary artery ligation/reperfusion infarct size; format: in vivo; details: for IS, expressed as a percent of the left ventricle or a percent of the area at risk: words
Procedure: as §1
Protocol 2: Mice received 14-day pretreatment with: 1) SIT (300 mg/kg per day); 2) PIO (5 mg/kg per day); 3) SIT+PIO; or water alone (control), as above. Mice underwent coronary artery ligation for 30 minutes followed by 4-hour reperfusion. […] The chest was opened and the left coronary artery was encircled with a suture and ligated for 30 minutes. Ischemia was verified by regional dysfunction and discoloration of the ischemic zone.
Hearts were excised and the left ventricle was sliced transversely into 6 sections. Slices were incubated for 10 minutes at 37 C in 1% buffered (pH=7.4) 2,3,5-triphenyl tetrazolium-chloride (TTC), fixed in a 10% formaldehyde and photographed in order to identify the AR (uncolored by the blue dye), the IS (unstained by TTC), and the non ischemic zones (colored by blue dye). The area of AR and IS in each slice were determined by planimetry, converted into percentages of the whole for each slice, and multiplied by the weight of the slice. The results were summed to obtain the weight of the myocardial AR and IS (38, 39).

COX2 = test: Myocardial COX2 activity, mouse; format: in vivo; details: for COX2 activity: mice, 3-day pretreatment, words
Procedure: as §1
(§4) Myocardial samples of the anterior wall of the left ventricle were homogenized in cold PBS (pH 7.4), and centrifuged. The supernatants were collected and stored on ice. Measurement of 6-Keto-PGF1α, the stable metabolite of prostacyclin, 15dPGJ2, 15-epilipoxinA4, and PLA2 activity were made using immunoassay assay kits. The COX activity assay kit measures the peroxidase activity of COX, assayed colorimetrically by monitoring the appearance of oxidized N,N,N″,N″-tetramethyl-p-phenylenediamaine (TMPD) at 590 nm. Each myocardial sample was tested in triplicate (the first without an inhibitor; the second with DuP-697, a specific COX2 inhibitor; and the third with Sc560, a specific COX1 inhibitor. COX1 activity was calculated as the difference between total COX activity in the sample without an inhibitor and the sample with Sc560, and COX2 activity as the difference between total COX activity in the sample without an inhibitor and the sample with DuP-697.

15dPGJ2 = test: Myocardial 15dPGJ2 levels, mouse; format: in vivo
Procedure: as §1, §2

15-epi-lipoxinA4 = test: Myocardial 15-epi-lipoxinA4 levels, mouse; format: in vivo
Procedure: as §1, §4

CREB = test: Immunoblotting of myocardial CREB, mouse; format: in vivo; details: IR
Procedure: as §1, §3

Protein Kinase A (PKA) = test: Myocardial PKA activity, mouse; format: in vivo
Procedure: Protocol 1: Mice received 3-day pretreatment with: 1) SIT (300 mg/kg per day); 2) PIO (5 mg/kg per day); 3) SIT+PIO; or water alone (control). Drugs were suspended in water and administered by oral gavage once daily. […] One hour after injection, mice underwent coronary artery ligation for 30 minutes followed by 4-hour reperfusion, or mice were euthanized under anesthesia and hearts were explanted without being subjected to ischemia.

cPLA2 = test: Myocardial cPLA2 activity, mouse; format: in vivo; details: for cPLA2 activity: mice, 3-day pretreatment, words
Procedure: as §1, §4

[2] = test system: middle cerebral artery occlusion; details: rat; 2 h occlusion, 24 h reperfusion; oral cilostazol 30 mg/kg, aspirin 300 mg/kg, clopidogrel 30 mg/kg; cited from earlier work
[3] = cited from earlier work
[4] = H-89 20 mg/kg i.v. after 3-day PIO
[5] = H-89 20 mg/kg i.v. after 3-day PIO, IR
[6] = H-89 20 mg/kg i.v. after 3-day SIT, IR
[7] = H-89 20 mg/kg i.v. after 3-day SIT
[8] = Protocol 1: mice, 3-day pretreatment (SIT 300 mg/kg per day, PIO 5 mg/kg per day), H-89 20 mg/kg i.v. alone
[9] = mice, 3-day pretreatment, words
[10] = mice, 3-day pretreatment, IR-induced increase, immunoblot, words
[11] = 50 patients, primary stenting for ST elevation acute myocardial infarction, cilostazol 100 mg BID versus aspirin alone

PKA activity: H-89 on the PIO induced increase (Protein Kinase A (PKA); [4]): completely blocked
PKA activity: H-89 on the SIT induced increase (Protein Kinase A (PKA); [7]): completely blocked
SMILES: O=S(=O)(NCCNC/C=C/c1ccc(Br)cc1)c1cccc2cnccc12 [H-89]
6-keto-PGF1α levels: H-89 on the effect of PIO (6-keto-PGF1α; [4]): did not block the effect of PIO
Ser-633 P-eNOS levels: H-89 on the effect of PIO (eNOS; [5]): attenuated this increase
Ser-1177 P-eNOS levels: H-89 on the effect of PIO (eNOS; [5]): attenuated the effects of both SIT and PIO
Ser-633 P-eNOS levels: H-89 on the effect of SIT (eNOS; [6]): attenuated this increase
Ser-1177 P-eNOS levels: H-89 on the effect of SIT (eNOS; [6]): attenuated the effects of both SIT and PIO
myocardial cAMP levels: H-89 on the SIT effect (cAMP; [7]): did not block the SIT effect
myocardial cAMP levels (cAMP): no effect on cAMP levels
IS, expressed as a percent of the left ventricle or a percent of the area at risk [1, 8]: no effect on IS
IS: effect of H-89 on the effect of PIO ([1]; Protocol 1, H-89 20 mg/kg i.v. one hour before ligation after 3-day PIO): only partially blocked the effect of PIO
IS: effect of H-89 on the effect of SIT ([1]; Protocol 1, H-89 20 mg/kg i.v. one hour before ligation after 3-day SIT): completely blocked the effect of SIT
COX2 activity: H-89 on the PIO induced increase (COX2; [4]): did not block the PIO induced increase
COX2 activity: H-89 in combination with SIT (COX2; [7]): no effect on COX2 activity
COX2 activity (COX2): no effect on COX2 activity
15dPGJ2 levels: H-89 on the effect of PIO (15dPGJ2; [4]): did not block the effect of PIO
15-epi-lipoxinA4 levels: H-89 on the effect of PIO (15-epi-lipoxinA4; [4]): completely blocked the effect of both PIO and SIT
15-epi-lipoxinA4 levels: H-89 on the effect of SIT (15-epi-lipoxinA4; [7]): completely blocked the effect of both PIO and SIT
levels of P-CREB: H-89 on the effect of PIO (CREB; [4]): blocked this effect of SIT and PIO
levels of P-CREB: H-89 on the effect of SIT (CREB; [7]): blocked this effect of SIT and PIO
cPLA2 activity: H-89 on the effect of PIO (cPLA2; [4]): did not block the effect of PIO
cPLA2 activity: H-89 in combination with SIT (cPLA2; [7]): no effect on cPLA2 activity
cPLA2 activity (cPLA2): no effect on cPLA2 activity

myocardial PKA activity (Protein Kinase A (PKA); mice, 3-day pretreatment, hearts not subjected to ischemia, words): augmented PKA activity
SMILES: N[C@@H](CC(=O)N1CCn2c(nnc2C(F)(F)F)C1)Cc1cc(F)c(F)cc1F [SIT, sitagliptin phosphate]
6-keto-PGF1α levels (6-keto-PGF1α; [9]): no effect
Ser-633 P-eNOS levels (eNOS; [10]): augmented this increase
Ser-1177 P-eNOS levels (eNOS; [10]): augmented this increase
total eNOS levels (eNOS; mice, 3-day pretreatment, ischemia-reperfusion (IR), immunoblot, words): no effect on total eNOS levels
myocardial cAMP levels (cAMP): significant increase
IS, expressed as a percent of the left ventricle or a percent of the area at risk [1, 8]: significantly smaller
IS, expressed as a percent of the left ventricle or a percent of the area at risk ([1]; Protocol 2: mice, 14-day pretreatment (SIT 300 mg/kg per day, PIO 5 mg/kg per day)): significantly smaller
COX2 activity (COX2): no effect on COX2 activity
15dPGJ2 levels (15dPGJ2; [9]): no effect
15-epi-lipoxinA4 levels (15-epi-lipoxinA4; [9]): significantly increased
total CREB levels (CREB; mice, 3-day pretreatment, immunoblot, words): did not affect total CREB levels
levels of P-CREB (CREB; mice, 3-day pretreatment, versus control no IR or control IR, words): significantly higher
cPLA2 activity (cPLA2): but not SIT, augmented cPLA2 activity

SMILES: CC(=O)Oc1ccccc1C(=O)O [aspirin]
brain infarct size [2]: but not aspirin (300 mg/kg) or clopidogrel (30 mg/kg) reduced brain infarct size
6-month restenosis rate [3, 11]: 20%
target lesion revascularization [3, 11]: 16%
in-stent stenosis ([3]; 70 patients, Palmaz-Schatz stenting, cilostazol 200 mg/d, aspirin 81 mg/d): 26.8%

SMILES: COC(=O)[C@H](c1ccccc1Cl)N1CCc2sccc2C1 [clopidogrel]
brain infarct size [2]: but not aspirin (300 mg/kg) or clopidogrel (30 mg/kg) reduced brain infarct size
